Measured values as given in patent US20180218112A1, “MOLECULAR BASED DECISION SUPPORT SYSTEM FOR CANCER TREATMENT” (priority 2014, published 2018).

Tests used:
[1] = Efficacy estimators of treatment alternatives reported in clinical trial studies; format: in vivo, patients; settings: for NRS: Non Response Survival, NRS=RS−RTD; for RS: Response Survival, RS=OS+(1−CBR)·RTD; for RTD* months: duration of clinical benefit, from TTP or PFS and graphical KM considerations
Description: Usually, in oncological studies we distinguish three reactions to a treatment well defined as their proportions are called: […]
ORR (Objective Response Rate which includes Partial Response and Complete Response) based on a percentage reduction of the tumor, PD (Progressive Disease) based on a percentage increase of the tumor and SD (Stable Disease) in which there is neither sufficient shrinkage to qualify for response, nor sufficient increase to qualify for progression.
Their proportion equals to ORR+SD and is called CBR (Clinical Benefit Rate).
OS (Overall Survival) is the median time from the treatment to death/loss of follow up.
RS (Response Survival) is the median time from response to death/loss of follow up in the responders group.
NRS (Non Response Survival) is the median time from the treatment to death/loss of follow up in the non-responders group.
The PFS (Progression Free Survival) or TTP (Time To Progression) is the median time from the treatment to the progression of the disease.
In the best case the DCB (Duration of Clinical Benefit) is also reported, which is the PFS of the participants defined like CBR.

[2] = clinical trial study population, cited from earlier work; for CBR %: Clinical Benefit Rate (ORR+SD); for OS months: median overall survival; for RR %: response rate
[3] = Molecular Prediction of Response (MPR) for patient X; settings: for CBR/P(Λ+): Bayesian estimation of P(Ω+|Λ+); for MPR: final Molecular Prediction of Response, patient X; for CBR + α · sd(CBR): heuristic estimate of P(Ω+|Λ+), MPR.QI=1
Description: Now, the MPR (Molecular Prediction of Response) is based on molecular results of the tumor lab analysis like the following:
At first, we attribute to the patient a “qualitative MPR”: MPR·QI in {−1, 0, 1}
If we don't know about any molecular markers that can predict a clinical response, than: MPR·QI=0
If the molecular analysis predicts no clinical response: MPR·QI=−1, and if the molecular analysis predicts some clinical response (including stable disease) MPR·QI=1.
MPR·QI=−1=>we admit in a deterministic way that MPR=0+sd(CBR)
MPR·QI=1=>we distinguish 3 cases.
Λ−⇒Ω− (or Ω+⇒Λ+) • In the best case if the article gives P(Ω+|Λ+) we use it. • If we have relevant knowledge on P(Λ+) we use a Bayesian estimation
P(Ω+|Λ+)=CBR+α·sd(RR) (2.7)
where α=3 for chemotherapy treatments and 2 for biological treatments.
The molecular predictions of the subject with the appropriated efficacy estimators or prevalence estimator from clinico-molecular and epidemiologic studies give the whole information that we need to obtain the final MPR.

[4] = Adjusted Efficiency Values (AEV), pooling/ranking algorithm and efficiency grades for patient X; settings: for subjOS: MPR·RS if MPR.QI=1 or MPR·NRS if MPR.QI=−1, table of three AEV by treatment name; for eff.OS: effOS=MPR·RS+(1−MPR)·NRS; for ART (pooled treatment group): sample-size weighted mean ART of the pooled treatments of the line, algorithm steps 1-6
Description: At each step, we also calculate AEG (Adjusted Efficiency Grades) with its standard-error:
AEG is a vector of grades such that to the higher AEV component the equivalent AEG component is 10 and to the lower AEV component the equivalent AEG component is 1.
At each step j, 1≤j≤k−2, we represent two successive “old” treatments (or treatment groups) which bear some different efficiency values in the j−1 step, in one “new” treatment efficiency vales in the j step. This representation is described below (we refer to it by noting that we “pull” treatments' efficiencies and represent it as a different efficiency value): • We are pooling (AEV(l(j−1))^(j−1), AEV(l(j−1)+1)^(j−1)) as if both treatments were a single treatment with an “average Adjusted Efficiency Value”: AEV(l(j−1))^(j−1)
We retain also initial AEG and final AEG (the last step which is “necessary”). But to finally give the Total Efficiency Score (TES) we use the AEG^(J):
TES=0.5×AEGART^(J)+0.45×AEGeffOS^(J)+0.05×AEGsubjOS^(J) which is a vector for k−J treatments groups.
The three AEV are finally: the RTD adjusted or ART=RTD·MPR, the effOS and a subjective OS (we choose explicitly in which group the patient is) i.e.
From RTD (table 2), MPR (table 4), RS and NRS (table 3) we get our three AEV by
ART=MPR·RTD; effOS=MPR·RS+(1−MPR)·NRS;
subjOS=MPR·RS if MPR·QI=1 or MPR·NRS if MPR·QI=−1.
The alternatives (designated here by their references) are ordered by ascending ART, and CLR are computed
The ART are projected on the grade interval (1,10) and we get:
After the 3 algorithms are done we can summarize 3 grades for each alternative and the final grade is the weighted mean of them (The weights are 0.5 for ART, 0.45 for effOS and 0.05 for subjOS when available)

[5] = cited from earlier work; for P(Ω+|Λ+): probability the treatment works given the marker exists, from clinico-molecular studies
[6] = ART=MPR·RTD, table of three AEV by treatment name
[7] = by treatment reference number, ordered ascending, algorithm steps 0-3
[8] = table of three AEV by treatment name

Compound: CN(C)C/C=C/C(=O)Nc1cc2c(Nc3ccc(F)c(Cl)c3)ncnc2cc1O[C@H]1CCOC1 [Afatinib]
- NRS [1]: 12.54 months
- RS [1]: 16.07 months
- RTD* months [1]: 3.5 months

Compound: CN(C)/N=N/c1[nH]cnc1C(N)=O [Dacarbasine]
- CBR % [2]: 15%
- OS months [2]: 7.5 months
- RR % [2]: 3%
- CBR/P(Λ+) [3]: 24.42
- MPR [3]: 44
- CBR + α · sd(CBR) [3]: 23.66
- ART [4, 6]: 0.779
- subjOS [4]: 4.011
- ART [4, 7]: 0.836
- eff.OS [4, 8]: 6.4
- ART (pooled treatment group) ([4]; listed as 2): 0.7858
- NRS [1]: 7.21 months
- RS [1]: 9.12 months
- RTD* months [1]: 1.9 months
- P(Ω+|Λ+) [5]: 44

Compound: CO[C@H]1C[C@@H]2CC[C@@H](C)[C@@](O)(O2)C(=O)C(=O)N2CCCC[C@H]2C(=O)O[C@H]([C@H](C)C[C@@H]2CC[C@@H](OCCO)[C@H](OC)C2)CC(=O)[C@H](C)/C=C(\C)[C@@H](O)[C@@H](OC)C(=O)[C@H](C)C[C@H](C)/C=C/C=C/C=C/1C [Everolimus]
- CBR % [2]: 32.4%
- OS months [2]: 5.9 months
- RR % [2]: 0%
- CBR/P(Λ+) [3]: 53.97
- MPR [3]: 53.97
- CBR + α · sd(CBR) [3]: 49.06
- ART [4, 6]: 2.4
- subjOS [4]: 9.077
- ART [4, 7]: 0.971
- eff.OS [4, 8]: 11.03
- NRS [1]: 5.32 months
- RS [1]: 7.12 months
- RTD* months [1]: 1.8 months

Compound: Cc1nc2ccc(CN(C)c3ccc(C(=O)N[C@@H](CCC(=O)O)C(=O)O)s3)cc2c(=O)[nH]1 [Raltitrexed]
- CBR % [2]: 15%
- OS months [2]: 7.4 months
- RR % [2]: 0%
- CBR/P(Λ+) [3]: 31.01
- MPR [3]: 50
- CBR + α · sd(CBR) [3]: 30.97
- subjOS [4]: 3.841
- ART [4, 7]: 2.4
- eff.OS [4, 8]: 6.288
- ART (pooled treatment group) ([4]; listed as 1, step 2, pooled treatments 3 and 1): 2.275
- ART (pooled treatment group) ([4]; listed as 1, step 3, pooled treatments 3, 1 and 6): 2.387
- NRS [1]: 6.68 months
- RS [1]: 11.48 months
- RTD* months [1]: 4.8 months
- P(Ω+|Λ+) [5]: 50

Compound: CNC(=O)c1cc(Oc2ccc(NC(=O)Nc3ccc(Cl)c(C(F)(F)F)c3)c(F)c2)ccn1 [Regorafenib]
- CBR % [2]: 41%
- OS months [2]: 6.4 months
- RR % [2]: 1%
- MPR [3]: 41
- ART [4, 6]: 0.971
- ART [4, 7]: 0.779
- eff.OS [4, 8]: 7.335
- ART (pooled treatment group) ([4]; listed as 4): 0.7858
- NRS [1]: 5.62 months
- RS [1]: 7.52 months
- RTD* months [1]: 1.9 months
- CBR ([5]; printed in column CBR + α · sd(CBR), MPR.QI=0): 41 (CBR)

Compound: O=C1NC(=O)[C@@H](c2cn3c4c(cccc24)CCC3)[C@@H]1c1c[nH]c2ccccc12 [Tivantinib]
- NRS [1]: 5.99 months
- RS [1]: 8.69 months
- RTD* months [1]: 2.7 months
